The source of these data is patent publication US8828695B2, “Method for producing butanol using two-phase extractive fermentation” (Butamax Advanced Biofuels LLC, priority 2008, dated 2014).

The test system of test [1] is Lactobacillus plantarum strain PN0512. Put plainly: Growth of Lactobacillus plantarum in the presence of isobutanol and oleyl alcohol (shake flask). The format is cell-based. As for the experimental part:
The glucose consumption rate and the growth rate of Lactobacillus plantarum strain PN0512 were measured in shake flask cultures containing a high concentration of isobutanol in the presence of oleyl alcohol (Example 4) and the absence of oleyl alcohol (Example 5, Comparative).
Three seed shake flasks containing 50 mL of de Man-Rogosa-Sharpe (MRS) medium were inoculated with 200, 500, and 1000 μL, respectively, of Lactobacillus plantarum strain PN0512 inoculum (ATCC: PTA-7727, biological deposit made Jul. 12, 2006 for U.S. patent application Ser. No. 11/761,497). The flasks were incubated overnight at 30° C. with shaking at 250 rpm until the OD600 was between 2 and 5. A 1-L flask containing 600 mL of MRS medium was inoculated from one of the above seed flasks having an OD600=3 to an initial OD600=0.1 and cultivated at 30° C. with shaking at 180 rpm. After 4 to 5 hours of cultivation, the OD600 was between 0.5 and 1.0. Samples were withdrawn from each culture and the OD600 and glucose concentration were measured as described above.
To a 125 mL flask was added 100 mL of the culture from the above mentioned 1-L flask (Example 3, Comparative). To another 125 mL flask was added 75 mL of the culture and 25 mL of oleyl alcohol (i.e., 25 vol %) (Example 2). The flasks were incubated at 30° C. with shaking at 100 rpm. Samples were withdrawn for OD600 and glucose measurement. When the OD600 reached about 1.5, isobutanol was added to both flasks to a final concentration of 30 g/L of the aqueous phase. A third flask containing 75 mL of the culture and 25 vol % of oleyl alcohol, but no added isobutanol, served as a positive control. Samples were withdrawn from all flasks at various times for the determination of OD600 and glucose concentration.

For test [2], the system named is Saccharomyces cerevisiae BY4741. Put plainly: Growth of Saccharomyces cerevisiae in the presence of isobutanol and oleyl alcohol (shake flask). The format is cell-based. As for the experimental part: The glucose consumption rate and the growth rate of wild-type Saccharomyces cerevisiae BY4741 strain were measured in shake flask cultures containing a high concentration of isobutanol in the presence of oleyl alcohol (Example 2) and the absence of oleyl alcohol (Example 3, Comparative).
Three seed shake flasks containing 600 mL of YPD medium were inoculated with 100, 300, and 1000 μL of Saccharomyces cerevisiae BY4741 inoculum, respectively. The flasks were incubated overnight at 30° C. with shaking at 250 rpm until the OD600 reached about 0.1. Samples were withdrawn from each culture and the OD600 and glucose concentration were measured as described above.
To a 125 mL flask was added 100 mL of the culture which was derived from the 300 μL inoculum (Example 3, Comparative). To another 125 mL flask was added 75 mL of the culture and 25 mL of oleyl alcohol (i.e., 25 vol %) (Example 2). The flasks were incubated at 30° C. with shaking at 100 rpm. Samples were withdrawn for OD600 and glucose measurement. When the OD600 reached about 0.4, isobutanol was added to both flasks to a final concentration of 30 g/L of the aqueous phase. A third flask containing 75 mL of the culture and 25 vol % of oleyl alcohol, but no added isobutanol, served as a positive control. Samples were withdrawn from all flasks at various times for the determination of OD600 and glucose concentration.

Test [3] shares this test system. Briefly: Biocompatibility of solvents, shake flask studies (OD600 and glucose). The format is cell-based. The conditions noted are these: for Glucose / OD600: 75 mL seed culture + 25 mL solvent, 30° C. As for the experimental part: The biocompatibility of each solvent was determined using shake flask studies with Saccharomyces cerevisiae BY4741 obtained from ATCC. Seed shake flasks containing 700 mL of yeast extract/peptone/dextrose (YPD) medium were inoculated with 200 μL of S. cerevisiae BY4741 inoculum and incubated overnight at 30° C. with shaking at 250 rpm until the OD600 reached about 0.5. Samples were withdrawn from the culture for measurement of OD600 using a spectrophotometer and glucose concentration using HPLC.
The resulting seed culture was divided into eight 125 mL flasks as follows. Into one flask, which served as a control, 100 mL of the seed culture was added. Into the remaining seven flasks, 75 mL of the seed culture and 25 mL of the solvent to be tested was added.

The nature of test [4]: Activity of the enzyme expressed from the sadB gene in cell-free extracts. The format is biochemical, Achromobacter xylosoxidans. The note with it: cell-free extracts of Mach1/pTrc99a::sadB, isobutyraldehyde as the standard. As to the method:
The sadB coding region was then cloned into the vector pTrc99a (Amann et al., Gene 69: 301-315, 1988). The pCR4Blunt::sadB was digested with EcoRI, releasing the sadB fragment, which was ligated with EcoRI-digested pTrc99a to generate pTrc99a::sadB. This plasmid was transformed into E. coli Mach 1 cells and the resulting transformant was named Mach1/pTrc99a::sadB. The activity of the enzyme expressed from the sadB gene in these cells was determined to be 3.5 mmol/min/mg protein in cell-free extracts when analyzed using isobutyraldehyde as the standard.

Where [5] appears, read: Time 3 h after isobutanol addition.
Setting [6] is: Time 4 h after isobutanol addition.
Where [7] appears, read: Time 5 h after isobutanol addition.
Setting [8] is: Time 14 h after isobutanol addition.
The mark [9] stands for this setting: isobutanol 30 g/L in the absence of oleyl alcohol.
Setting [10] is: 25 vol % oleyl alcohol, isobutanol 30 g/L.

As to `CCCCCCCC/C=C\CCCCCCCCO` [Control, oleyl alcohol], the Glucose in test [1] (Time 0 h (isobutanol addition)) came out at 12.9 g/L; in test [1] (setting [5]) it was 7.4 g/L; in test [1] (setting [6]), 4.5 g/L; in test [1] (setting [7]), 1.9 g/L; in test [1] (setting [8]), 0 g/L; in test [2] (Time 0 h (isobutanol addition)), 19.7 g/L. In addition, the Glucose is listed as 16.0 g/L in test [2] (setting [5]), 12.9 g/L in test [2] (setting [6]), 9.2 g/L in test [2] (setting [7]) and 0.3 g/L in test [2] (setting [8]). Further, the OD600 in test [1] (Time 0 h (isobutanol addition)) was determined as 5.6; in test [1] (setting [5]), 8.9; in test [1] (setting [6]), 10.4; in test [1] (setting [7]) it was 14.1; in test [1] (setting [8]) it was 8.8; in test [2] (Time 0 h (isobutanol addition)), 0.4. Also, the OD600 in test [2] (setting [5]) turned out to be 0.6; in test [2] (setting [6]), 1.7; in test [2] (setting [7]), 2.5; in test [2] (setting [8]), 3.3.

For the molecule `CC(C)CO` [Example 3, isobutanol], the Glucose is on record as 18.9 g/L in test [2] (Time 0 h (isobutanol addition)); 17.5 g/L in test [2] (setting [5]); 17.7 g/L in test [2] (setting [6]); 17.4 g/L in test [2] (setting [7]); 17.4 g/L in test [2] (setting [8]). Also, the OD600 in test [2] (Time 0 h (isobutanol addition)) was 0.4; in test [2] (setting [5]), 0.6; in test [2] (setting [6]), 0.7; in test [2] (setting [7]) it was 0.6; in test [2] (setting [8]) it was 0.6.

On to `CC(C)CO` [Example 5, isobutanol], for which the Glucose amounted to 12.7 g/L in test [1] (Time 0 h (isobutanol addition)); 11.7 g/L in test [1] (setting [5]); 11.7 g/L in test [1] (setting [6]); 11.7 g/L in test [1] (setting [7]); 11.6 g/L in test [1] (setting [8]). Further, the OD600 is listed as 5.7 in test [1] (Time 0 h (isobutanol addition)); 6.8 in test [1] (setting [5]); 6.9 in test [1] (setting [6]); 7.2 in test [1] (setting [7]); 5.3 in test [1] (setting [8]).

With `CC(C)CO` [isobutanol], the “Effect on glucose utilization and biomass growth” value in test [1] (setting [9]) is “almost completely inhibited glucose utilization and biomass growth”; in test [2] (setting [9]), “almost completely inhibited glucose utilization and biomass growth”.

Regarding `CCCCCCCC/C=C\CCCCCCCCO` [oleyl alcohol], the “Effect of oleyl alcohol on isobutanol toxicity” value in test [1] (setting [10]) and in test [2] (setting [10]) was “mitigates the toxicity of isobutanol” each time. For the same molecule, in test [3] (S. cerevisiae BY4741, 25 mL solvent per 100 mL), the “Biocompatibility of the solvent (growth and glucose utilization versus control without solvent)” value is “biocompatible”. Further, the Glucose is recorded as 17.5 g/L in test [3] (t = 0); 15.3 g/L in test [3] (t = 2 h); 10.4 g/L in test [3] (t = 4 h); 3.4 g/L in test [3] (t = 6 h); 0.0 g/L in test [3] (t = 24 h). Moreover, the OD600 in test [3] (t = 0) came to 0.5; in test [3] (t = 4), 2.0; in test [3] (t = 2 h), 1.0; in test [3] (t = 6 h), 2.4; in test [3] (t = 24 h), 3.5.

B1: sadB: butanol dehydrogenase from Achromobacter xylosoxidans (protein SEQ ID NO:10), expressed in E. coli Mach1/pTrc99a::sadB (protein)
chain: MKALVYHGDHKISLEDKPKPTLQKPTDVVVRVLKTTICGTDLGIYKGKNPEVADGRILGHEGVGVIEEVGESVTQFKKGDKVLISCVTSCGSCDYCKKQLYSHCRDGGWILGYMIDGVQAEYVRIPHADNSLYKIPQTIDDEIAVLLSDILPTGHEIGVQYGNVQPGDAVAIVGAGPVGMSVLLTAQFYSPSTIIVIDMDENRLQLAKELGATHTINSGTENVVEAVHRIAAEGVDVAIEAVGIPATWDICQEIVKPGAHIANVGVHGVKVDFEIQKLWIKNLTITTGLVNTNTTPMLMKVASTDKLPLKKMITHRFELAEIEHAYQVFLNGAKEKAMKIILSNAGAA
modifications: Achromobacter xylosoxidans
As to B1, the “activity of the enzyme expressed from the sadB gene” value in test [4] was 3.5 mmol/min/mg protein.
